Assays:
[1] = test system: giant foxtail; experiment: Test A pre-/postemergence herbicide test; assay type: in vivo, Setaria faberii; conditions: for Foxtail, Giant plant response rating: Preemergence, visual rating on 0 to 100 scale (0 no effect, 100 complete control)
Method in brief: (§1)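 Planted in loam–sand blend; treated the same day preemergence by directed soil spray, while separately grown plants at one- to two-leaf stage got postemergence spray. Compared visually with untreated controls after approximately 10 days; 100 means complete control.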

[2] = test system: johnsongrass; experiment: Test C pre-/postemergence herbicide test; assay type: in vivo, Sorghum halepense
Method in brief: (§2)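 Test compounds, formulated in a surfactant-containing non-phytotoxic solvent blend, are applied to seeded loam/sand soil (preemergence) and to young plants at the 1- to 4-leaf stage in peat-based medium (postemergence). Plants stay 13 to 15 days under greenhouse conditions, then are scored visually relative to controls, 0 = no effect, 100 = complete control.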

[3] = test system: ragweed; experiment: Test C pre-/postemergence herbicide test; assay type: in vivo, Ambrosia elatior
Method in brief: as §2

[4] = test system: corn; experiment: Test A pre-/postemergence herbicide test; assay type: in vivo, Zea mays; conditions: for Corn plant response rating: Preemergence, visual rating on 0 to 100 scale (0 no effect, 100 complete control)
Method in brief: as §1

[5] = test system: oat, wild; experiment: Test C pre-/postemergence herbicide test; assay type: in vivo, Avena fatua
Method in brief: as §2

[6] = test system: ducksalad; experiment: Test B flooded paddy test; assay type: in vivo, Heteranthera limosa; conditions: 250 g ai/ha, Flood; scale of 0 to 100 where 0 is no effect and 100 is complete control
Method in brief: (§3)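 Visual ratings from 0, meaning no effect, up to 100, meaning complete control, were made by comparison with untreated controls 13 to 15 days after treatment. Test compounds went straight into floodwater standing 3 cm over the soil of pots holding 2-leaf seedlings.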

[7] = test system: wheat (winter wheat); experiment: Test C pre-/postemergence herbicide test; assay type: in vivo, Triticum aestivum
Method in brief: as §2

[8] = test system: sedge, umbrella; experiment: Test B flooded paddy test; assay type: in vivo, Cyperus difformis; conditions: 250 g ai/ha, Flood; scale of 0 to 100 where 0 is no effect and 100 is complete control
Method in brief: as §3

[9] = test system: lambsquarters; experiment: Test C pre-/postemergence herbicide test; assay type: in vivo, Chenopodium album
Method in brief: as §2

[10] = test system: rice; experiment: Test B flooded paddy test; assay type: in vivo, Oryza sativa; conditions: 250 g ai/ha, Flood; scale of 0 to 100 where 0 is no effect and 100 is complete control
Method in brief: as §3

[11] = test system: crabgrass, large; experiment: Test C pre-/postemergence herbicide test; assay type: in vivo, Digitaria sanguinalis
Method in brief: as §2

[12] = test system: pigweed; experiment: Test C pre-/postemergence herbicide test; assay type: in vivo, Amaranthus retroflexus
Method in brief: as §2

[13] = Postemergence, 125 g ai/ha, 0 to 100 scale, 0 no effect, 100 complete control
[14] = Postemergence, 500 g ai/ha, 0 to 100 scale (0 no effect, 100 complete control)
[15] = preemergence, 500 g ai/ha, 0 to 100 scale
[16] = Postemergence, 16 g ai/ha, scale 0 to 100 (0 no effect, 100 complete control)
[17] = Postemergence, 31 g ai/ha, scale 0 (no effect) to 100 (complete control)
[18] = Postemergence, 62 g ai/ha, scale 0 to 100 (0 no effect, 100 complete control)
[19] = Postemergence, 125 g ai/ha, scale 0 to 100 (0 no effect, 100 complete control)
[20] = Preemergence, 62 g ai/ha, scale 0 to 100
[21] = Preemergence, 125 g ai/ha, scale 0 to 100 (0 no effect, 100 complete control)
[22] = Preemergence, 16 g ai/ha, scale 0 to 100
[23] = Postemergence, 250 g ai/ha, scale 0 to 100 (0 no effect, 100 complete control)

Question: Which “Plant response rating, Foxtail, Giant” value [1, 13] does the source give for `O=C1NCC(c2cc(F)c(F)c(F)c2)C1C(=O)Nc1cccc(F)c1F` (centres unmarked) [Compound 48] here?
Answer: 80

Question: What about the “Plant response rating, Foxtail, Giant” value [1, 14] of the same compound?
Answer: 80

Question: What about the “Foxtail, Giant plant response rating” value ([1]; 125 g ai/ha) of the same compound?
Answer: 80

Question: What about the “Plant response rating, Foxtail, Giant” value [1, 15] of the same compound?
Answer: 90

Question: What about the “Plant response rating, Johnsongrass” value [2, 16] of the same compound?
Answer: 0

Question: What about the “Plant response rating, Johnsongrass” value [2, 17] of the same compound?
Answer: 0

Question: What about the “Plant response rating, Johnsongrass” value [2, 18] of the same compound?
Answer: 0

Question: And the “Plant response rating, Johnsongrass” value [2, 19]?
Answer: 0

Question: What about the “Plant response rating, Johnsongrass” value [2, 20] of the same compound?
Answer: 10

Question: And the “Plant response rating, Johnsongrass” value [2, 21]?
Answer: 20

Question: And the “Plant response rating, Johnsongrass” value [2, 22]?
Answer: 0

Question: What about the “Plant response rating, Ragweed” value [3, 16] of the same compound?
Answer: 0

Question: And the “Plant response rating, Ragweed” value [3, 17]?
Answer: 5

Question: And the “Plant response rating, Ragweed” value [3, 18]?
Answer: 5

Question: And the “Plant response rating, Ragweed” value [3, 19]?
Answer: 35

Question: What about the “Plant response rating, Ragweed” value [3, 20] of the same compound?
Answer: 10

Question: And the “Plant response rating, Ragweed” value [3, 21]?
Answer: 10

Question: What about the “Plant response rating, Ragweed” value [3, 22] of the same compound?
Answer: 0

Question: And the “Plant response rating, Corn” value [4, 13]?
Answer: 0

Question: What about the “Plant response rating, Corn” value [4, 14] of the same compound?
Answer: 50

Question: What about the “Corn plant response rating” value ([4]; 125 g ai/ha) of the same compound?
Answer: 0

Question: And the “Plant response rating, Corn” value [4, 15]?
Answer: 20

Question: And the “Plant response rating, Oat, Wild” value [5, 16]?
Answer: 0

Question: And the “Plant response rating, Oat, Wild” value [5, 17]?
Answer: 0

Question: And the “Plant response rating, Oat, Wild” value [5, 18]?
Answer: 0

Question: What about the “Plant response rating, Oat, Wild” value [5, 19] of the same compound?
Answer: 0

Question: And the “Plant response rating, Oat, Wild” value [5, 20]?
Answer: 0

Question: What about the “Plant response rating, Oat, Wild” value [5, 21] of the same compound?
Answer: 10

Question: And the “Plant response rating, Oat, Wild” value [5, 22]?
Answer: 0

Question: What about the “Plant response rating, Ducksalad” value [6] of the same compound?
Answer: 100

Question: And the “Plant response rating, Wheat” value [7, 16]?
Answer: 0

Question: What about the “Plant response rating, Wheat” value [7, 17] of the same compound?
Answer: 0

Question: What about the “Plant response rating, Wheat” value [7, 18] of the same compound?
Answer: 0

Question: And the “Plant response rating, Wheat” value [7, 19]?
Answer: 5

Question: What about the “Plant response rating, Wheat” value [7, 20] of the same compound?
Answer: 20

Question: And the “Plant response rating, Wheat” value [7, 21]?
Answer: 45

Question: And the “Plant response rating, Wheat” value [7, 22]?
Answer: 0

Question: And the “Plant response rating, Sedge, Umbrella” value [8]?
Answer: 60

Question: What about the “Plant response rating, Lambsquarters” value [9, 17] of the same compound?
Answer: 10

Question: And the “Plant response rating, Lambsquarters” value [9, 19]?
Answer: 10

Question: What about the “Plant response rating, Lambsquarters” value [9, 20] of the same compound?
Answer: 65

Question: And the “Plant response rating, Lambsquarters” value [9, 21]?
Answer: 65

Question: What about the “Plant response rating, Lambsquarters” value [9, 22] of the same compound?
Answer: 0

Question: What about the “Plant response rating, Rice” value [10] of the same compound?
Answer: 20

Question: What about the “Plant response rating, Crabgrass, Large” value [11, 16] of the same compound?
Answer: 20

Question: And the “Plant response rating, Crabgrass, Large” value [11, 17]?
Answer: 40

Question: And the “Plant response rating, Crabgrass, Large” value [11, 18]?
Answer: 65

Question: What about the “Plant response rating, Crabgrass, Large” value [11, 19] of the same compound?
Answer: 75

Question: What about the “Plant response rating, Crabgrass, Large” value [11, 20] of the same compound?
Answer: 90

Question: What about the “Plant response rating, Crabgrass, Large” value [11, 21] of the same compound?
Answer: 95

Question: And the “Plant response rating, Crabgrass, Large” value [11, 22]?
Answer: 75

Question: What about the “Crabgrass, Large plant response rating” value ([11]; Preemergence, 31 g ai/ha, scale 0 to 100 (0 no effect, 100 complete control)) of the same compound?
Answer: 85

Question: And the “Plant response rating, Pigweed” value [12, 16]?
Answer: 10

Question: What about the “Plant response rating, Pigweed” value [12, 17] of the same compound?
Answer: 25

Question: And the “Plant response rating, Pigweed” value [12, 18]?
Answer: 30

Question: What about the “Plant response rating, Pigweed” value [12, 19] of the same compound?
Answer: 40

Question: What about the “Plant response rating, Pigweed” value [12, 20] of the same compound?
Answer: 0

Question: And the “Plant response rating, Pigweed” value [12, 21]?
Answer: 0

Question: And the “Plant response rating, Pigweed” value [12, 22]?
Answer: 0

Question: `O=C1NCC(c2cc(F)c(F)cc2F)C1C(=O)Nc1cccc(F)c1F` (centres unmarked) [Compound 50] was tested. Which “Plant response rating, Foxtail, Giant” value [1, 13] did it give?
Answer: 80

Question: What about the “Plant response rating, Foxtail, Giant” value [1, 14] of the same compound?
Answer: 80

Question: What about the “Foxtail, Giant plant response rating” value ([1]; 125 g ai/ha) of the same compound?
Answer: 90

Question: And the “Plant response rating, Foxtail, Giant” value [1, 15]?
Answer: 90

Question: And the “Plant response rating, Johnsongrass” value [2, 17]?
Answer: 0

Question: And the “Plant response rating, Johnsongrass” value [2, 18]?
Answer: 0

Question: And the “Plant response rating, Johnsongrass” value [2, 19]?
Answer: 0

Question: And the “Plant response rating, Johnsongrass” value [2, 23]?
Answer: 10

Question: And the “Plant response rating, Ragweed” value [3, 17]?
Answer: 0

Question: And the “Plant response rating, Ragweed” value [3, 18]?
Answer: 0

Question: And the “Plant response rating, Ragweed” value [3, 19]?
Answer: 0

Question: And the “Plant response rating, Ragweed” value [3, 23]?
Answer: 10

Question: And the “Plant response rating, Corn” value [4, 13]?
Answer: 0

Question: And the “Plant response rating, Corn” value [4, 14]?
Answer: 0

Question: And the “Corn plant response rating” value ([4]; 125 g ai/ha)?
Answer: 0

Question: What about the “Plant response rating, Corn” value [4, 15] of the same compound?
Answer: 0

Question: And the “Plant response rating, Oat, Wild” value [5, 17]?
Answer: 0

Question: And the “Plant response rating, Oat, Wild” value [5, 18]?
Answer: 0

Question: And the “Plant response rating, Oat, Wild” value [5, 19]?
Answer: 0

Question: And the “Plant response rating, Oat, Wild” value [5, 23]?
Answer: 0

Question: What about the “Plant response rating, Ducksalad” value [6] of the same compound?
Answer: 90

Question: And the “Plant response rating, Wheat” value [7, 17]?
Answer: 0

Question: And the “Plant response rating, Wheat” value [7, 18]?
Answer: 0

Question: And the “Plant response rating, Wheat” value [7, 19]?
Answer: 0

Question: What about the “Plant response rating, Wheat” value [7, 23] of the same compound?
Answer: 0

Question: And the “Plant response rating, Sedge, Umbrella” value [8]?
Answer: 55

Question: What about the “Plant response rating, Lambsquarters” value [9, 17] of the same compound?
Answer: 5

Question: What about the “Plant response rating, Lambsquarters” value [9, 18] of the same compound?
Answer: 10

Question: What about the “Plant response rating, Lambsquarters” value [9, 19] of the same compound?
Answer: 10

Question: What about the “Plant response rating, Lambsquarters” value [9, 23] of the same compound?
Answer: 15

Question: What about the “Plant response rating, Rice” value [10] of the same compound?
Answer: 0

Question: And the “Plant response rating, Crabgrass, Large” value [11, 17]?
Answer: 10

Question: And the “Plant response rating, Crabgrass, Large” value [11, 18]?
Answer: 25

Question: What about the “Plant response rating, Crabgrass, Large” value [11, 19] of the same compound?
Answer: 40

Question: And the “Plant response rating, Crabgrass, Large” value [11, 23]?
Answer: 75

Question: And the “Plant response rating, Pigweed” value [12, 17]?
Answer: 10

Question: And the “Plant response rating, Pigweed” value [12, 18]?
Answer: 10

Question: What about the “Plant response rating, Pigweed” value [12, 19] of the same compound?
Answer: 20

Question: What about the “Plant response rating, Pigweed” value [12, 23] of the same compound?
Answer: 20

Source: patent US10294202B2, “Pyrrolidinones as herbicides” (FMC Corporation, priority 2013, dated 2019)
